Results: patent US20240336568A1, “SELECTIVE PHD1 INHIBITOR COMPOUNDS, COMPOSITIONS, AND METHODS OF USE” (Akebia Therapeutics, Inc., priority 2021, published 2024)

system: full-length human prolyl-4-hydroxylase domain (PHD) enzymes, PHD1 and PHD2; test: TR-FRET assay, selectivity of compounds for PHD1 over PHD2 (ratio of Kis calculated from IC50s); format: biochemical; conditions: ratio of Kis (PHD2 Ki/PHD1 Ki), Kis calculated from TR-FRET IC50s by Cheng Prussoff equation; 1 uM 2-OG
Excerpt: Time-resolved fluorescence resonance energy transfer (TR-FRET) assay was utilized to determine the enzymatic half maximal inhibitory concentration (IC50) value of PHD inhibitors against the full-length human prolyl-4-hydroxylase domain (PHD) enzymes, PHD1 and PHD2. The TR-FRET assay was developed based on the specific binding of hydroxylated HIF-la peptide with the complex formed by VHL, EloB and EloC (VBC), to generate a fluorescent signal. Terbium (Tb)-Donor (monoclonal antibody anti-6His-Tb-cryptate Gold) and D2-acceptor (streptavidin [SA]-D2) of TR-FRET are linked to the VBC complex and to HIF-1α peptide, respectively. The VBC complex binds specifically to the HIF-1α peptide when it is hydroxylated, allowing energy transfer from TR-FRET donor to acceptor (FIG. 1).
TR-FRET Reagents. Monoclonal antibody anti-6His-Tb-cryptate Gold (catalog #61HI2TLA) and streptavidin (SA)-D2 (catalog #610SADLA) were purchased from CisBio International (Bedford, MA, USA).
N-terminus biotinylated HIF-1α C35 synthetic peptide representing amino acids 547 to 581 and including the proline 564 PHD2 hydroxylation site was purchased from California Peptide Research (Salt Lake City, UT, USA).
VBC Complex. His-tagged recombinant VHL protein, EloB, EloC complex (His-VBC) was supplied by Axxam (Milan, Italy). Recombinant human VHL (National Center for Biotechnology Information [NCBI] accession number NP_00542.1) contained a His tag at the C-terminus of amino acids 55 to 213 and is referred to as VHL-His. VHL-His was co-expressed in E. coli with full-length human EloB (NCBI accession number Q15370.1) and full-length human EloC (NCBI accession number Q15369.1) and purified by affinity chromatography on a nickel-nitrilotriacetic acid (Ni-NTA) column as the His-VBC complex. Purity (˜80%) was assessed by sodium dodecyl sulfate polyacrylamide gel electrophoresis (SDS-PAGE).
PHD1. Recombinant human PHD1 protein (catalog #81064, Lot #24717001) was purchased from Active Motif (Carlsbad, CA, USA). PHD1 was expressed in a baculovirus expression system as the full-length protein (NCBI accession number NP_542770.2) with an N-terminal FLAG tag (molecular weight 44.9 kDa). Purity (>90%) was assessed by SDS-PAGE.
PHD2. The full-length human PHD2 enzyme was produced with a baculovirus infected insect cell (BIIC) expression system by Beryllium (Bedford, MA, USA). The PHD2 construct contained amino acids 1 to 426 of PHD2 (UniProt Knowledgebase[UniProtKB]/Swiss-Prot accession number Q9GZT9.1), and a His tag and a Tobacco Etch Virus (TEV) protease cleavage site at the N-terminus. The construct was expressed in Sf9 insect cells, purified by Ni-NTA column and digested with TEV protease to remove the His tag.
Compounds were preincubated with PHD enzyme in a 10 μL reaction volume in white 384-well Optiplate microplates (catalog #6007290, Perkin Elmer, Waltham, MA, USA). For this, 5 μL compound was serially diluted with dilution buffer (50 mM HEPES [4-(2-hydroxyethyl)-1-piperazineethanesulfonic acid] pH 7.5, 50 mM sodium chloride [NaCl], 0.01% Tween-20, 0.01% purified bovine serum albumin [BSA]) and mixed with 5 μL PHD enzyme mix prepared as a 4× concentrate in the dilution buffer containing PHD enzyme (60 nM PHD1, 20 nM PHD2, 140 nM PHD3), 40 μM ferrous ammonium sulfate (FAS), 4 mM sodium (Na) ascorbate. The plates were incubated for 30 minutes at room temperature without rotation.
Five microliters of the VBC/anti-6His-Tb-cryptate Gold mix prepared as a 4× concentrate in dilution buffer containing 20 nM His-VBC, 1.32 nM monoclonal antibody anti-6His-Tb-cryptate Gold was then added. This step was followed immediately by the addition of 5 μL of the HIF-1α C35 substrate mix prepared as a 4× concentrate in the dilution buffer containing 120 nM biotin-labeled HIF-1α C35, 132 nM SA-D2, 4 μM 2-oxoglutarate (2-OG) to reach a final reaction volume of 20 μL. […]

SMILES | Selectivity of PHD1 over PHD2 [fold]
COCCc1ccc(OCc2cccc(-c3cnc(C(=O)NCC(C)(C)C(=O)O)c(O)c3)c2)cc1 [compound 13, 3-(3-hydroxy-5-(3-((4-(2-methoxyethyl)phenoxy)methyl)phenyl)picolinamido)-2,2-dimethylpropanoic acid] | ~6
Cc1cccc2cc(-c3cnc(C(=O)NCC(C)(C)C(=O)O)c(O)c3)cnc12 [compound 40, 3-(3-hydroxy-5-(8-methylquinolin-3-yl)picolinamido)-2,2-dimethylpropanoic acid] | ~20
CC(C)(CNC(=O)c1ncc(-c2cnn(-c3ccccc3)c2)cc1O)C(=O)O [compound 6, 3-(3-Hydroxy-5-(1-phenyl-1H-pyrazol-4-yl)picolinamido)-2,2-dimethylpropanoic acid] | ~249
CC(C)(CNC(=O)c1ncc(-c2ccc3cc(NS(C)(=O)=O)ccc3c2)cc1O)C(=O)O [compound 59, 3-(3-hydroxy-5-(6-(methylsulfonamido)naphthalen-2-yl)picolinamido)-2,2-dimethylpropanoic acid] | ~88
CC(CNC(=O)c1ncc(-c2cnn(-c3ccccc3)c2)cc1O)C(=O)O (centres unmarked) [compound 50, 3-(3-hydroxy-5-(1-phenyl-1H-pyrazol-4-yl)picolinamido)-2-methylpropanoic acid] | ~50
CC(C)(C)OC(=O)N1CCC(n2cc(-c3cnc(C(=O)NCC(C)(C)C(=O)O)c(O)c3)cn2)CC1 [compound 32, 3-(5-(1-(1-(tert-butoxycarbonyl)piperidin-4-yl)-1H-pyrazol-4-yl)-3-hydroxypicolinamido)-2,2-dimethylpropanoic acid] | ~444
CC(C)(CNC(=O)c1ncc(-c2cccc(-c3ccccc3)c2)cc1O)C(=O)O [compound 9, 3-(5-([1,1′-biphenyl]-3-yl)-3-hydroxypicolinamido)-2,2-dimethylpropanoic acid] | ~189
Cc1ccc2ccc(-c3cnc(C(=O)NCC(C)(C)C(=O)O)c(O)c3)c(F)c2n1 [compound 44, 3-(5-(8-fluoro-2-methylquinolin-7-yl)-3-hydroxypicolinamido)-2,2-dimethylpropanoic acid] | ~1833
